The text below walks through data of ChEMBL document CHEMBL6103581, “Identification of Thieno[3,2-d]pyrimidine derivatives as potent and selective Janus Kinase 1 inhibitors” (Eur J Med Chem, 2025).

SMILES strings stand for the structures. A value given as a limit tells only on which side of the number the result lay.

In assay [1] the test system is BaF3. Put plainly: Antiproliferative activity against mouse parental BaF3 cells assessed as cell growth inhibition incubated for 72 hrs by Cell-TiterGlo assay. Format: functional.
Assay [2] is described as follows: Antiproliferative activity against mouse Ba/F3-TEL-JAK1 cells assessed as cell growth inhibition incubated for 72 hrs by Cell-TiterGlo assay. The format is functional.
The subject of assay [3] is NCI-H1975. Kind of assay: Antiproliferative activity against human NCI-H1975 cells assessed as cell growth inhibition incubated for 72 hrs by Cell-TiterGlo assay. Format: functional.
In assay [4] the test system is NCI-H2087. Kind of assay: Antiproliferative activity against human NCI-H2087 cells assessed as cell growth inhibition incubated for 72 hrs by Cell-TiterGlo assay. The format is functional.
Assay [5] deals with Tyrosine-protein kinase JAK2 (Homo sapiens, UniProt O60674). Put plainly: Inhibition of N-terminal GST-tagged human recombinant JAK2 (804 to end residues) extracted from baculovirus infected in Sf9 cells using IGF1Rtide as substrate preincubated for 15 min followed by substrate addition and measured after 1 hr by ADP-Glo kinase assay.
Sequence of Tyrosine-protein kinase JAK2 (O60674 whole entry): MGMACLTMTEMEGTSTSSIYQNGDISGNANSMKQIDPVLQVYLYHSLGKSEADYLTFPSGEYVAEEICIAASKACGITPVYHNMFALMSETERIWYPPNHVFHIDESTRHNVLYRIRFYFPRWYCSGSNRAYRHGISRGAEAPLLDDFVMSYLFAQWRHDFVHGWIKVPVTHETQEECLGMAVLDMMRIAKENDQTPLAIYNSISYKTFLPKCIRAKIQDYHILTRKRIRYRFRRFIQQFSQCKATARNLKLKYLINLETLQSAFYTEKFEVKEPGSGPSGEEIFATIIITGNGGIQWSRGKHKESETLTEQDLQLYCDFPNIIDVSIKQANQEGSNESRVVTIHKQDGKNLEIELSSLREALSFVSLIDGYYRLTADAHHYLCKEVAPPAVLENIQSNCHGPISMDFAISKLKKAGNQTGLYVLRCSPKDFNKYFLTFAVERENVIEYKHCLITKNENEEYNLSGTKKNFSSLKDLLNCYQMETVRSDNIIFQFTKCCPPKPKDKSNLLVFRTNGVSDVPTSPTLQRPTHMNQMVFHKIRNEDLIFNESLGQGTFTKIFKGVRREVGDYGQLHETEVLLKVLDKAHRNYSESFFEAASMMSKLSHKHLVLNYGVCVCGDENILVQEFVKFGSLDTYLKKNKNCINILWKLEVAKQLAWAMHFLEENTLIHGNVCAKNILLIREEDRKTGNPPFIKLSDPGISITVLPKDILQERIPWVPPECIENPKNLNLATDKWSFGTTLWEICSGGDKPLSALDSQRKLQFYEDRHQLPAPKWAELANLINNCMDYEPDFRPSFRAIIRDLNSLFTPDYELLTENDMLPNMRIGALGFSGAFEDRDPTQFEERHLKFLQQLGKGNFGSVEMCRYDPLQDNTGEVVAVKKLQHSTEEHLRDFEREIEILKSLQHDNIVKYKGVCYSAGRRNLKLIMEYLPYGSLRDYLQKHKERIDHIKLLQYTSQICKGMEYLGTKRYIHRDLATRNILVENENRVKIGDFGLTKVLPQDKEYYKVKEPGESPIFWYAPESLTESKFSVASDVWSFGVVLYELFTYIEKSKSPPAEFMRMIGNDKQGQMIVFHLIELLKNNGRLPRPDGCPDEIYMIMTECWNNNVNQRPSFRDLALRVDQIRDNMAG
Assay [6] addresses T1, Tyrosine-protein kinase JAK3 (Homo sapiens, UniProt P52333).
T1 sequence (P52333 whole entry): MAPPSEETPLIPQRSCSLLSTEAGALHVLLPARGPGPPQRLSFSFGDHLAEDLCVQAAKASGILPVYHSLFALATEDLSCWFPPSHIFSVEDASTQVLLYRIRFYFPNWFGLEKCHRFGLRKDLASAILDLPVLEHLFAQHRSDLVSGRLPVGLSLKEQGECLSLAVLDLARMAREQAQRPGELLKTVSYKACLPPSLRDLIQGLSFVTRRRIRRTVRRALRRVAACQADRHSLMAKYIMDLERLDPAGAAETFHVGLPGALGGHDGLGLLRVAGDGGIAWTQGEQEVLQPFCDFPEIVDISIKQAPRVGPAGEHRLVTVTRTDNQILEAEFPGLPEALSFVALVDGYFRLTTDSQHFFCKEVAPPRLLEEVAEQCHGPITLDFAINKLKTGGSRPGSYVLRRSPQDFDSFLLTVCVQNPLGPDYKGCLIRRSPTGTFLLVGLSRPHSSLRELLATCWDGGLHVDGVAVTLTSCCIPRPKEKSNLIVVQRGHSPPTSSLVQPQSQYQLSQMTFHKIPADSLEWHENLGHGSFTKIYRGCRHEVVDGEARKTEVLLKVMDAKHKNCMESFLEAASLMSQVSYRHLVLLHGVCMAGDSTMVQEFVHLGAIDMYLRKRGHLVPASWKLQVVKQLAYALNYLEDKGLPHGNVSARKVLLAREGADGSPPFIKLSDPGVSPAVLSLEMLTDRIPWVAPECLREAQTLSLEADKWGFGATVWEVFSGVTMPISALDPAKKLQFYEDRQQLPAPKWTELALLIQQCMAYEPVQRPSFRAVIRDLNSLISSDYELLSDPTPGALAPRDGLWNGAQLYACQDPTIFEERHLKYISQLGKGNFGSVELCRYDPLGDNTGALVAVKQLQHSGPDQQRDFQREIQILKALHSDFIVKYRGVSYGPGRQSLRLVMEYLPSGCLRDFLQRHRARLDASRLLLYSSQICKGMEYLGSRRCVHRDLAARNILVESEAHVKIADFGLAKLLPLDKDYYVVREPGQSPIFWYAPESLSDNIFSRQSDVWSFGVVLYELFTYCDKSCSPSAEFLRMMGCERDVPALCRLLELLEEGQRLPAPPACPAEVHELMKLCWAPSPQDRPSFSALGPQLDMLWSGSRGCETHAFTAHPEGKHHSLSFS
Put plainly: Inhibition of N-terminal GST-tagged human recombinant JAK3 (781 to end residues) extracted from baculovirus infected in Sf9 cells using Poly(4:1 Glu, Tyr) as substrate preincubated for 15 min followed by substrate addition and measured after 1 hr by ADP-Glo kinase assay.

On to `COc1nn(C)cc1Nc1ncc2scc(-c3cccc(NC(=O)[C@H]4CCCN4S(C)(=O)=O)c3)c2n1`, for which the GI50 in assay [1] came to 6.16 µM; in assay [2] it was 3.1 µM; in assay [3], 8.98 µM; in assay [4], 9.5 µM.
With `C=CC(=O)N1C[C@H](Nc2ncnc3[nH]ccc23)CC[C@@H]1C` [RITLECITINIB], the 50% growth inhibitory concentration (GI50) in assay [1], in assay [2], in assay [3] and in assay [4] was greater than 50 µM in each case.
On to `Cc1ncccc1Nc1ncc2scc(-c3cccc(NC(=O)[C@@H](C)N4CCN(C)CC4)c3)c2n1`, for which the GI50 in assay [1] amounted to 2.74 µM; in assay [2], 1.97 µM; in assay [3], 23.1 µM; in assay [4], 6.42 µM.
For `Cc1ccc(Nc2ncc3scc(-c4cccc(NC(=O)[C@@H](C)N5CCN(C)CC5)c4)c3n2)cn1`, in that order: 2.52 µM, 0.994 µM, 9.18 µM and 2.67 µM.
For `C[C@H](C(=O)Nc1cccc(-c2csc3cnc(Nc4nnn(C)n4)nc23)c1)N1CCN(C)CC1`, in that order: 6.09 µM, 7.17 µM, 27.9 µM and 6.47 µM.
Turning to `COc1nn(C)cc1Nc1ncc2scc(-c3cccc(NC(=O)[C@H]4CCCN4C(C)=O)c3)c2n1`, the IC50 in assay [5] was determined as 3.02 µM; in assay [6], 0.248 µM. Moreover, the 50% growth inhibitory concentration (GI50) in assay [1] was 4.06 µM; in assay [2], 0.897 µM; in assay [3], 10.2 µM; in assay [4], 13.1 µM.
On to `Cc1cc(Nc2ncc3scc(-c4cccc(NC(=O)[C@@H](C)N5CCN(C)CC5)c4)c3n2)n(C)n1`, for which the GI50 was 4.26 µM in assay [1], 1.6 µM in assay [2], 7.34 µM in assay [3] and 7.05 µM in assay [4].
With `COc1nn(C)cc1Nc1ncc2scc(-c3cccc(NC(=O)[C@@H]4CCCN4)c3)c2n1`, the GI50 was determined as 3.33 µM in assay [1], 1.22 µM in assay [2], 8.86 µM in assay [3] and 3.74 µM in assay [4].
Regarding `COc1nn(C(C)=O)cc1Nc1ncc2scc(-c3cccc(NC(=O)[C@@H](C)N4CCN(C)CC4)c3)c2n1`, the 50% growth inhibitory concentration (GI50) is 2.27 µM in assay [1], 2.42 µM in assay [2], 4.61 µM in assay [3] and 3.28 µM in assay [4].
In the case of `C=CC(=O)N1CCN([C@H](C)C(=O)Nc2cccc(-c3csc4cnc(Nc5cn(C)nc5OC)nc34)c2)CC1`, the GI50 in assay [1] was determined as 1.62 µM; in assay [2], 1.7 µM; in assay [3], 13.5 µM; in assay [4], 10.5 µM.
For `COc1ncccc1Nc1ncc2scc(-c3cccc(NC(=O)[C@@H](C)N4CCN(C)CC4)c3)c2n1`, in that order: 2.59 µM, 1.77 µM, 10.5 µM and 3.27 µM.
For `COc1nn(C)cc1Nc1ncc2scc(-c3cccc(NS(C)(=O)=O)c3)c2n1` the same measures were 0.781 µM, 0.659 µM, 4.53 µM and 8.22 µM.
For `COc1nn(C)cc1Nc1ncc2scc(-c3cccc(NC(=O)[C@@H](C)N4CCN(C(C)=O)CC4)c3)c2n1`, in that order: 1.69 µM, 1.89 µM, 23.6 µM and 21.1 µM.
`COc1nn(C)cc1Nc1ncc2scc(-c3cccc(NC(=O)[C@@H](C)N4CCN(C5CCOCC5)CC4)c3)c2n1`: the GI50 in assay [1] was found to be 1.37 µM; in assay [2], 1.22 µM; in assay [3], 23.4 µM; in assay [4] it was 8.98 µM.
For `COc1nn(C)cc1Nc1ncc2scc(-c3cccc(NC(=O)[C@@H](C)N4CCN(C(=O)C(F)(F)F)CC4)c3)c2n1` the same measures were 1.04 µM, 0.351 µM, 7.36 µM and 3.48 µM.
For `C[C@H](C(=O)Nc1cccc(-c2csc3cnc(Nc4cn(C)nc4C(F)(F)F)nc23)c1)N1CCN(C)CC1` the same measures were 2.77 µM, 1.93 µM, 7.4 µM and 3.03 µM.
As to `COc1nn(C)cc1Nc1ncc2scc(-c3cccc(NC(=O)[C@@H](C)N4CCN(S(C)(=O)=O)CC4)c3)c2n1`, the concentration for 50% growth inhibition (GI50) is 3.77 µM in assay [1], 2.45 µM in assay [2], 20.2 µM in assay [3] and 22.2 µM in assay [4].
For `COc1nn(CCO)cc1Nc1ncc2scc(-c3cccc(NC(=O)[C@@H](C)N4CCN(C)CC4)c3)c2n1`, in that order: 1.04 µM, 0.809 µM, 10.4 µM and 5.57 µM.
For `C[C@H](C(=O)Nc1cccc(-c2csc3cnc(Nc4cccnc4O)nc23)c1)N1CCN(C)CC1` the same measures were 6.16 µM, 7.31 µM, 18.5 µM and 13.5 µM.
For `C[C@@H]1CCN(C(=O)CC#N)C[C@@H]1N(C)c1ncnc2[nH]ccc12` [TOFACITINIB] the same measures were 1.81 µM, 0.495 µM, greater than 50 µM and greater than 50 µM.
`COc1nn(C)cc1Nc1ncc2scc(-c3cccc(NC(=O)[C@@H](C)N4CCN(C5COC5)CC4)c3)c2n1`: the GI50 was 6.07 µM in assay [1], 6.78 µM in assay [2], greater than 50 µM in assay [3] and 16.4 µM in assay [4].
For `Cc1ccnc(C)c1Nc1ncc2scc(-c3cccc(NC(=O)[C@@H](C)N4CCN(C)CC4)c3)c2n1`, in that order: 17.3 µM, 16.2 µM, 28.9 µM and 7.82 µM.
For `C[C@H](C(=O)Nc1cccc(-c2csc3cnc(Nc4cccc(S(C)(=O)=O)c4F)nc23)c1)N1CCN(C)CC1`, in that order: 0.677 µM, 0.641 µM, 12.6 µM and 6.28 µM.
For `COc1nn(C)cc1Nc1ncc2scc(-c3cccc(NC(=O)[C@H]4CCCN4C4CCN(C)CC4)c3)c2n1` the same measures were 2.25 µM, 1.61 µM, 11 µM and 4.26 µM.
For `COc1nn(C)cc1Nc1ncc2scc(-c3cccc(NC(=O)[C@H]4CCCN4C4CCOCC4)c3)c2n1`, the concentration for 50% growth inhibition (GI50) in assay [1] was determined as 6.37 µM; in assay [2] it was 2.79 µM; in assay [3], 21 µM; in assay [4], 9.31 µM.
As for `COc1nn(C)cc1Nc1ncc2scc(-c3cccc(N)c3)c2n1`, the figures for the IC50 in assay [5] and in assay [6] were 0.154 µM and 0.068 µM, respectively. Also, the concentration for 50% growth inhibition (GI50) in assay [1] was 1.01 µM; in assay [2], 0.313 µM; in assay [3], 4.49 µM; in assay [4] it was 4.6 µM.
On to `COc1nn(C)cc1Nc1ncc2scc(-c3cccc(NC(=O)[C@@H](C)N4CCN(C(=O)CC#N)CC4)c3)c2n1`, for which the GI50 in assay [1] was 3.98 µM; in assay [2], 2.44 µM; in assay [3], 40.3 µM; in assay [4] it was 23.3 µM.
On to `COc1nn(C)cc1Nc1ncc2scc(-c3cccc(NC(=O)[C@@H](C)N4CCNCC4)c3)c2n1`, for which the concentration for 50% growth inhibition (GI50) stood at 0.507 µM in assay [1], 0.188 µM in assay [2], 4.26 µM in assay [3] and 1.66 µM in assay [4].
For `Cc1ccc(Nc2ncc3scc(-c4cccc(NC(=O)[C@@H](C)N5CCN(C)CC5)c4)c3n2)c(C)n1` the same measures were 7.83 µM, 5.45 µM, 27.2 µM and 6.49 µM.
As for `COc1nn(C)cc1Nc1ncc2scc(-c3cccc(NC(=O)[C@@H](C)N4CCN(C(C)C)CC4)c3)c2n1`, the GI50 in assay [1] was determined as 1.05 µM; in assay [2] it was 0.519 µM; in assay [3] it was 15.4 µM; in assay [4] it was 3.61 µM.
Turning to `COc1n[nH]cc1Nc1ncc2scc(-c3cccc(NC(=O)[C@@H](C)N4CCN(C)CC4)c3)c2n1`, the 50% growth inhibitory concentration (GI50) in assay [1] was 1.24 µM; in assay [2] it was 0.62 µM; in assay [3], 16.5 µM; in assay [4], 8.62 µM.
